Results as given in paper PMC12132910, “A Novel Inhibitor against the Bromodomain Protein 1 of the Malaria Pathogen Plasmodium Falciparum” (Chemmedchem, 2025).
Values joined by “and” are separate entries in the source; they are usually repeats but may differ in a detail not shown here. Equal entries are not always repeated. Where two headings read alike, the source gives them in different places.

Key:
PfBDP1-BRD = PfBDP1-BRD (Plasmodium falciparum, UniProt Q8IJ72); test: Isothermal titration calorimetry (ITC) with PfBDP1-BRD; type: binding; conditions: 25 °C
PfBDP1-BRD, sequence (Q8IJ72 entry or part of it): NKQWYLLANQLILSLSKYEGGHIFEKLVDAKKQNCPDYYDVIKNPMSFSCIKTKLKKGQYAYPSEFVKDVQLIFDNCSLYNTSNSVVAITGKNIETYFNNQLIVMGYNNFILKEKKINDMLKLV
Procedure: and incubated at 37 °C and 180 rpm until an OD600 of ~2.5. The culture was cooled to 18 °C, induced with 0.2 mM IPTG, and incubated for 16 hours overnight. Cells were harvested by centrifugation (Beckman Coulter Avanti J-26 XP, Rotor: JLA 8.100 Rotor) at 5000 x g for 15 min at 4 °C.
The cell pellet was resuspended in PBS (1:3 w/v). The suspension was lysed by sonication (Branson Digital Sonifier 250; 15 min, 3 sec pulse, 10 sec pause, amplitude 70%) at 4 °C. Insoluble debris was removed by centrifugation (Beckmann Coulter Avanti-J30 I, Rotor: 30.50Ti) at 80,000 x g for 45 min at 4 °C. The lysate was then sterile-filtered (0.45 µm) and purified by […] affinity chromatography. The protein was cleaved using either PreScission Protease (PfBDP1-BRD-construct) or TEV Protease (PvBDP1-BRD-construct) separating the bromodomain from the fusion protein. Further separation of the cleaved GST tag and any remaining GST fusion protein was achieved by an additional round of GST affinity chromatography.
Specifically, we used Glutathione Sepharose High Performance (HP) resin (Cytiva, 17-5279-01). A 25 mL batch of resin was self-packed into a column, equilibrated with PBS, and used to purify GST-tagged proteins. The cleaved bromodomain, which […]
Following this step, the bromodomain protein was further purified by size exclusion chromatography using a HiLoad 26/600 Superdex 75 pg column (GE Healthcare).
Isothermal Titration Calorimetry (ITC)
Affinity was measured using a MicroCal VP-ITC microcalorimeter (Malvern Instruments). Measurements were performed at 25 °C with the ligand (0.04 mM) in PBS (Phosphate buffer saline; 137 mM NaCl, 10 mM phosphate, 2.7 mM KCl; pH 7.4) buffer present in the cell and the protein (0.4 mM) injected via a stirred syringe (351 revolutions per minute) in 5 min intervals (1 injection of 6 µL and 20 injections of 13.5 µL). Solutions were degassed prior to measurements. The first injection was discarded to account for any potential diffusion during equilibration. Automated baseline correction and peak integration were conducted using NITPIC[1,2]. Analysis, fitting, and thermodynamic calculations were performed using a binary interaction model in SEDPHAT[3], and plots were generated using GUSSI[4]. Confidence intervals were calculated using the “Automatic Confidence Interval Search with Projection” method in SEDPHAT. During the confidence level search, the confidence level was set to 0.99, and Simplex optimization was applied prior to Marquardt-Levenberg at each step. Error Surface Projection was performed by alternating between Simplex and Marquardt-Levenberg algorithms until convergence was achieved.
Supporting Table S1. Amino acid sequences of proteins used in this […]
PfBDP1-BRD Construct (Uniprot: Q8IJ72; Residues: 333-456)
The construct includes an N-terminal GST-tag followed by a Prescission protease cleavage site. After cleavage, the purified protein retains an additional […] sequence at […]
the N-terminus, which originates from the vector's multiple cloning site. […]

[1] = test system: 3D7::PfBDP1HADD parasites; test: Dose-response assay in conditional PfBDP1 knockdown parasites; type: cell-based, Plasmodium falciparum; conditions: 10 nM Shld1 compared to 500 nM Shld1, 72 h
Description: To validate whether the compounds indeed target the BRD of PfBDP1, we utilized a conditional KD system to modulate the expression levels of PfBDP1 in situ.^[ [15] ^] In the 3D7::PfBDP1HADD line, PfBDP1 is fused at its C‐terminus to a ligand‐regulatable FKBP destabilization domain (DD) that targets the fusion protein for proteasomal degradation but can be stabilized by the Shield1 ligand, and 3xHA epitope tags for detection ^11. […] In contrast, the EC50 of chloroquine was unchanged.
A) Western Blot analysis of 3D7::PfBDP1HADD parasites cultivated in the presence of Shield1 (Shld) in concentrations ranging from 0 to 500 nM over 72 h in duplicates. PfBDP1HADD was detected by anti‐HA antibodies. Histone 3 (H3) was probed as a loading control. […] Growth was determined relative to DMSO controls for each condition after 72 h of culture. N = 4 replicates. […] Binding of PfBDP1HA to target loci was calculated as enrichment relative to histone H3 ChIP performed in parallel. Shown are individual values and median of one representative experiment with technical duplicates. Paired t‐test, p = 0.0015. […]
resistant strain K1, MRA-159, contributed by Dennis E. Kyle. The NF54::PfBDP1HA parasite line was generated by transfection of NF54 parasites with the plasmid pSLI_PfBDP1_3xHA and selection linked integration of the construct in the presence of G418[21]. […]
(§1) Malaria SYBR green I based fluorescence assay
SYBR Green I based fluorescence assays to determine dose-response curves were performed essentially as described previously (Leidenberger et al., 2017). […] After 72 hours, cultures were lysed in lysis buffer (20 mM Tris-HCl, 5 mM EDTA, 0.008% saponin (Sigma-Aldrich), 0.08% Triton X (Sigma-Aldrich), 1:10,000 SYBR Green I dye (Invitrogen)) and fluorescence was measured in a Fluoroskan Ascent FL reader (excitation: 485 nm, emission: 530 nm). […]

P. falciparum 3D7 = test: Malaria SYBR green I based fluorescence assay, dose response, 3D7; type: cell-based; conditions: Plasmodium falciparum, blood stage culture, 72 hours, mean (SD), 1 to 3 biological replicates
Procedure: (§2) The BRDi compounds had modest activity against all three strains (Table 2 ). […]
(§3) Shield1. Parasites were propagated in human red blood cells (blood group 0+) obtained from the Bavarian Red Cross service (BRK) and cultivated under standard conditions in RPMI 1640 (ThermoFisher) supplemented with 0.5% Albumax
(§4) (ThermoFisher), 20 µg/ml Gentamycin, 25 mM Hepes (pH 7.3), and 0.02% hypoxanthine in an atmosphere of 1% O2, 5% CO2, 94% N2.
as §1
(§5) SYBR Green I based fluorescence assays to determine dose-response curves were performed essentially as described previously (Leidenberger et al., 2017). Briefly, parasite cultures were diluted to 1% ring stage parasitemia and cultivated at 2.5% haematocrit in 96 well plates in the presence of serial half-log dilutions of the compounds ranging from 100 µM to 10 nM or DMSO (dimethyl sulfoxide) corresponding to the highest concentration (0.1%). Chloroquine (C6628, Sigma-Aldrich) was used as control that was not expected to target PfBDP1 and was titrated from 5 µM to 1.6 nM. After 72 hours, cultures were lysed in lysis buffer (20 mM Tris-HCl, 5 mM EDTA, 0.008% saponin (Sigma-Aldrich), 0.08% Triton X (Sigma-Aldrich), 1:10,000 SYBR Green I dye (Invitrogen)) and fluorescence was measured in a Fluoroskan Ascent FL reader (excitation: 485 nm, emission: 530 nm). […]

P. falciparum NF54 = test: Malaria SYBR green I based fluorescence assay, dose response, NF54; type: cell-based; conditions: Plasmodium falciparum, blood stage culture, 72 hours, mean (SD), 1 to 3 biological replicates
Procedure: as §2, §3, §4, §1, §5

[2] = test system: P. falciparum K1 (multidrug resistant); test: Malaria SYBR green I based fluorescence assay, dose response, K1; type: cell-based; conditions: Plasmodium falciparum, K1, 72 h, read-out: EC50 K1
Procedure: as §2
resistant strain K1, MRA-159, contributed by Dennis E. Kyle. […]
as §3, §4, §1, §5

Structure (SMILES) | Kd (PfBDP1-BRD; PBS pH 7.4, read-out: K D) | further results
Cc1cc(C#N)cc(C)c1-c1[nH]c(C)c2c1CCCCC2=O [RMM24, 3,5-dimethyl-4-(3-methyl-4-oxo-2,4,5,6,7,8-hexahydrocyclohepta[c]pyrrol-1-yl)benzonitrile] | 1.22 µM | 
CCN(CC)CCCC(C)Nc1ccnc2cc(Cl)ccc12 (centres unmarked) [chloroquine, Chloroquine, reference compound] |  | change of sensitivity (dose-response, EC50) under partial PfBDP1 knockdown [1]: unchanged
CNc1cccc(-c2[nH]c(C)c3c2CCCCC3=O)c1 [RMM8, 3-Methyl-1-(3-(methylamino)phenyl)-5,6,7,8-tetrahydrocyclohepta[c]pyrrol-4(2H)-one] | 9.16 µM | 
Cc1[nH]c(-c2cccc([N+](=O)[O-])c2)c2c1C(=O)CCCC2 [RMM7, 3-Methyl-1-(3-nitrophenyl)-5,6,7,8-tetrahydrocyclohepta[c]pyrrol-4(2H)-one] | 16.9 µM | 
Cc1[nH]c(-c2ccccc2Cl)c2c1C(=O)CCCC2 [RMM1] | 5.8 µM and 5.81 µM | 
Cc1[nH]c(-c2ccccc2C(F)(F)F)c2c1C(=O)CCCC2 [RMM4] | 2.9 µM and 2.94 µM | 
CC(=O)Nc1cccc(-c2[nH]c(C)c3c2CCCCC3=O)c1 [RMM10] | 6.96 µM | 
Cc1cc(C(N)=O)cc(C)c1-c1[nH]c(C)c2c1CCCCC2=O [RMM25, 3,5-Dimethyl-4-(3-methyl-4-oxo-2,4,5,6,7,8-hexahydrocyclohepta[c]pyrrol-1-yl)benzamide] | 0.896 µM | EC50 (P. falciparum 3D7): 19 µM; EC50 (P. falciparum NF54): 12.2 µM; EC50 [2]: 7.35 µM; change of sensitivity (dose-response, EC50) under partial PfBDP1 knockdown [1]: moderately increased sensitivity
Cc1[nH]c(-c2cccc(N)c2)c2c1C(=O)CCCC2 [MPM2] | 6.7 µM and 6.74 µM | 
Cc1[nH]c(-c2cccc(C(N)=O)c2)c2c1C(=O)CCCC2 [MPM8] | 7.45 µM | 
Cc1[nH]c(-c2cc(N)ccc2Cl)c2c1C(=O)CCCC2 [MPM6, reference compound] |  | Kd (PfBDP1-BRD; K D, PBS pH 7.4): 4.53 µM
COc1ccccc1-c1[nH]c(C)c2c1CCCCC2=O [RMM5] | 7.13 µM | 
Cc1[nH]c(-c2cccc(N(C)C)c2)c2c1C(=O)CCCC2 [RMM9, 1-(3-(dimethylamino)phenyl)-3-methyl-5,6,7,8-tetrahydrocyclohepta[c]pyrrol-4(2H)-one] | 8.03 µM | 
CCc1ccccc1-c1[nH]c(C)c2c1CCCCC2=O [RMM3] | 9.17 µM | 
Cc1ccccc1-c1[nH]c(C)c2c1CCCCC2=O [RMM2] | 3.9 µM and 3.94 µM | 
Cc1cccc(-c2[nH]c(C)c3c2CCCCC3=O)c1 [RMM6, 3-Methyl-1-(m-tolyl)-5,6,7,8-tetrahydrocyclohepta[c]pyrrol-4(2H)-one] | 6.2 µM and 6.22 µM | 
Cc1[nH]c(-c2ccccc2)c2c1C(=O)CCCC2 [MPM3, 3-Methyl-1-phenyl-5,6,7,8-tetrahydrocyclohepta[c]pyrrol-4(2H)-one] | 10 µM and 10.4 µM | 

Further lines, with some results ahead:

Kd (PfBDP1-BRD; PBS pH 7.4, read-out: K D) | Structure (SMILES) | further results
4.7 µM | Cc1[nH]c(-c2cccc(NS(C)(=O)=O)c2)c2c1C(=O)CCCC2 [RMM11] | 
6.39 µM | Cc1[nH]c(-c2ccc(S(N)(=O)=O)cc2)c2c1C(=O)CCCC2 [RMM19] | 
4.54 µM | Cc1[nH]c(-c2ccc(C#N)cc2)c2c1C(=O)CCCC2 [RMM18] | 
2.76 µM | Cc1[nH]c(-c2cccc(NS(C)(=O)=O)c2C)c2c1C(=O)CCCC2 [RMM21, N-(2-Methyl-3-(3-methyl-4-oxo-2,4,5,6,7,8-hexahydrocyclohepta[c]pyrrol-1-yl)phenyl)methanesulfonamide] | 
11.7 µM | Cc1ccc(-c2[nH]c(C)c3c2CCCCC3=O)cc1 [RMM14] | 
8.17 µM | Cc1ccc(NS(C)(=O)=O)cc1-c1[nH]c(C)c2c1CCCCC2=O [RMM20] | 
4.49 µM | Cc1[nH]c(-c2ccc(C(N)=O)cc2)c2c1C(=O)CCCC2 [RMM15] | 
42.4 µM | Cc1[nH]c(-c2ccc(C(=O)N(C)C)cc2)c2c1C(=O)CCCC2 [RMM17] | 
2.34 µM | Cc1cc(C#N)ccc1-c1[nH]c(C)c2c1CCCCC2=O [RMM22, 3-Methyl-4-(3-methyl-4-oxo-2,4,5,6,7,8-hexahydrocyclohepta[c]pyrrol-1-yl)benzonitrile] | 
4.9 µM and 4.93 µM | Cc1[nH]c(-c2cccc(S(N)(=O)=O)c2)c2c1C(=O)CCCC2 [RMM13] | 
5.14 µM | CNC(=O)c1ccc(-c2[nH]c(C)c3c2CCCCC3=O)cc1 [RMM16] | 
